Measured values reported in patent publication US5879902A, “Diagnostic methods and kits for the evaluation of the sympathetic nervous system function” (Neuro-Biotech Inc., priority 1997, dated 1999).
Several values for one entry are separate records, joined by “and”; a condition that tells them apart may be missing. Identical values can stand only once. Counter-ions that a name gives are not always drawn.

Experiments:
Format in all cases: biochemical
dopamine-β-hydroxylase [1] = target: T1, dopamine-β-hydroxylase (Homo sapiens, UniProt P09172); experiment: Specific DBH activity in unpurified human serum (octopamine formed from tyramine, spectrophotometric); details: for % Control (DBH activity with the named component omitted) / Activity (DBH enzyme activity with the named component omitted): named ingredient omitted from reaction mixture, pool of 25 normal human serum; for Activity (DBH enzyme activity with the named component omitted): 37° C., mean ± SEM of at least 10 determinations; for decrease in enzyme activity on omission of the component from the incubation medium: component omitted; for saturation point (concentration saturating the enzyme activity): 20 μL human serum, tyramine varied at 10 mM ascorbate, ascorbate varied at 20 mM tyramine; for apparent Vmax: pH 5.0, Woolf's graphical method
T1 sequence (P09172 40-617 limits assumed): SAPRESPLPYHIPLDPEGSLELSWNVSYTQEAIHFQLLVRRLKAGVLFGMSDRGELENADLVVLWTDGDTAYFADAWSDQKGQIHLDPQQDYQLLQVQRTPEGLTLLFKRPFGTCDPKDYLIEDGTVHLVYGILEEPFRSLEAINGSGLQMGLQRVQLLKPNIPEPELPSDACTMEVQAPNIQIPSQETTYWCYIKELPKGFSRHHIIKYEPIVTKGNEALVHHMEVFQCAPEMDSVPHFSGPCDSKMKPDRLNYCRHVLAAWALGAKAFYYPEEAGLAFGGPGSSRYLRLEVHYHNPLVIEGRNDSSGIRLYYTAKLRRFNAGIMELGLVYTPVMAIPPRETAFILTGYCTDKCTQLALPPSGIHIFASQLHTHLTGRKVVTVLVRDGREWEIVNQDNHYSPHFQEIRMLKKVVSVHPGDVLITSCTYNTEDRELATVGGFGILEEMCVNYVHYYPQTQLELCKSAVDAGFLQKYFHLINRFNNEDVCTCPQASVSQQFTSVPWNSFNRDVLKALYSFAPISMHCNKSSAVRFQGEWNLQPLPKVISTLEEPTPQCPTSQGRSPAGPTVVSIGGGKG
Method: (§1) The kinetic parameters and biochemical properties were done on a pool of 25 subjects randomly distributed between males and females. An appropriate aliquot of serum was taken as enzyme source and diluted in ice-cold deionized water to a final volume of 400 μL, prior the preincubation period. For individual measurements of DBH enzyme activity, 20 μL of human serum was routinely used. For the ultrafiltration method, an aliquot of a pool of serum was passed through a DIAFLO™ Ultrafilter membrane, type YM100, and 40 μL of the ultrafiltrate was used to measure the enzyme activity (FIG. 9).
The specific DBH activity was determined by the method described by Roberge and Charbonneau (Roberge AG et al., Nutr Res, 1985, 5:57-63). The preincubation mixture contained 0.2M sodium acetate buffer (pH 5), 15 mM N-ethylmaleimide (NEM) and the enzyme source (from the serum sample) and was carried out at 25° C. for 10 min in an atmosphere of air using a metabolic shaker (Dubnoff). To the preincubated enzymatic source were added to a final volume of 1 mL: 10 mM fumarate, […], 2500 units catalase and 1 mM pargyline, as monoamide oxidasae inhibitor. Blanks and internal standards were set up in the same manner and contained 20 mM octopamine instead of the enzyme source. The incubation was started with 20 mM tyramine and conducted at 37° C. for 30 min in an atmosphere of air using a metabolic shaker (Dubnoff). The reaction was stopped on ice by adding 300 μL of 3M trichloroacetic acid to each tube and immediately centrifuged at 2500 g of at 4° C. for 10 min. The supernatant was decanted on a DOWEX™ 50×4-400 resin column and the acid eluted with 3M NH4 OH. The octopamine formed was derived to p-hydroxybenzaldehyde by periodate cleavage which was isolated by successive solvent extractions with ether and ammonia. The last aqueous phase was assayed by a dual-wavelenght spectrophotometer (333-360 nm). Specific activity was expressed […] of octopamine formed per mL per min. Recovery of octopamine added to the blank incubation mixture was 90±2%. L-tyramine was used as substrate and an aliquot of unpurified serum was taken as the enzyme source, usually 20 μL.
Apparent Michaelis constant (Km) and apparent maximum velocity (Vmax) were determined following the Woolf's graphical procedure and the usual method of Lineweaver and Burk. Statistical estimation related to enzyme kinetics was done according to Wilkinson.

dopamine-β-hydroxylase [2] = target: T1, dopamine-β-hydroxylase; experiment: DBH activity in ultrafiltrate of human serum (DIAFLO YM100 membrane); set-up: an aliquot of a pool of serum was passed through a DIAFLO™ Ultrafilter membrane, type YM100; from tissue; host or cells: ultrafiltrate of pooled human serum; details: with the named substance in the medium (15 mM NEM; copper up to 4 μM)
Method: as §1
(§2) The specific DBH activity was determined by the method described by Roberge and Charbonneau (Roberge AG et al., Nutr Res, 1985, 5:57-63). The preincubation mixture contained 0.2M sodium acetate buffer (pH 5), 15 mM N-ethylmaleimide (NEM) and the enzyme source (from the serum sample) and was carried out at 25° C. for 10 min in an atmosphere of air using a metabolic shaker (Dubnoff). To the preincubated enzymatic source were added to a final volume of 1 mL: 10 mM fumarate, […], 2500 units catalase and 1 mM pargyline, as monoamide oxidasae inhibitor. […]
The relationship between copper and NEM in the medium was studied in an aliquot of serum passed through a DIAFLO™ Ultrafilter membrane, type YM100, and the enzyme activity was measured in the ultrafiltrate. […]

dopamine-β-hydroxylase [3] = target: T1, dopamine-β-hydroxylase; experiment: DBH activity in human EDTA-treated blood
Method: (§3) The specific DBH activity was determined by the method described by Roberge and Charbonneau (Roberge AG et al., Nutr Res, 1985, 5:57-63). The preincubation mixture contained 0.2M sodium acetate buffer (pH 5), 15 mM N-ethylmaleimide (NEM) and the enzyme source (from the serum sample) and was carried out at 25° C. for 10 min in an atmosphere of air using a metabolic shaker (Dubnoff). To the preincubated enzymatic source were added to a final volume of 1 mL: 10 mM fumarate, […], 2500 units catalase and 1 mM pargyline, as monoamide oxidasae inhibitor. Blanks and internal standards were set up in the same manner and contained 20 mM octopamine instead of the enzyme source. The incubation was started with 20 mM tyramine and conducted at 37° C. for 30 min in an atmosphere of air using a metabolic shaker (Dubnoff). The reaction was stopped on ice by adding 300 μL of 3M trichloroacetic acid to each tube and immediately centrifuged at 2500 g of at 4° C. for 10 min. […]
(§4) Apparent Michaelis constant (Km) and apparent maximum velocity (Vmax) were determined following the Woolf's graphical procedure and the usual method of Lineweaver and Burk. […]
(§5) In FIG. 7A, the specific DBH enzyme activity was measured in human blood treated with EDTA, a copper chelator, in respect to pH dependence, to copper content added in the incubation medium and to kinetic parameters. […]

[4] = substrate: NCCc1ccc(O)cc1; experiment: Specific DBH activity in unpurified human serum (octopamine formed from tyramine, spectrophotometric); details: other: human serum, pH 5.0, Woolf's graphical method
Method: as §1, §2, §4

[5] = substrate: NCCc1ccc(O)cc1; experiment: DBH activity in human EDTA-treated blood; details: other: EDTA-treated blood, pH 5.8, Lineweaver and Burk
Method: as §3, §4, §5

Q: `O=C(O)/C=C/C(=O)O` [Furnarate, disodium fumarate] was tested. Which “% Control (DBH activity with the named component omitted)” value (“% Control” below) (dopamine-β-hydroxylase [1]) did it give?
A: 88%

Q: What about the “Activity (DBH enzyme activity with the named component omitted)” value (dopamine-β-hydroxylase [1]) of the same molecule?
A: 47.5 ± 1.00 nmol of octopamine formed per mL per min

Q: What about the “increase in enzyme activity by addition of fumarate” value (dopamine-β-hydroxylase [1]; whatever the concentrations used, up to 40 mM) of the same molecule?
A: 12%

Q: Which “enzyme activity in ultrafiltrate” value (dopamine-β-hydroxylase [2]) does the source give for `CCN1C(=O)C=CC1=O` [N-ethylmaleimide (NEM), N-ethylmaleimide] here?
A: 52±0.7 nmol of octopamine formed per mg of protein per hour

Q: What about the “decrease in enzyme activity on omission of the component from the incubation medium” value (dopamine-β-hydroxylase [1]; human serum) of the same molecule?
A: 36% and 66%

Q: What about the “% Control” value (dopamine-β-hydroxylase [1]) of the same molecule?
A: 66%

Q: And the “Activity (DBH enzyme activity with the named component omitted)” value (dopamine-β-hydroxylase [1])?
A: 35.6 ± 0.39 nmol of octopamine formed per mL per min

Q: Which results are given for `O=C1O[C@H]([C@@H](O)CO)C(O)=C1O` [ascorbate, ascorbic acid]?
A: saturation point (concentration saturating the enzyme activity) (dopamine-β-hydroxylase [1]): 10 mM; decrease in enzyme activity on omission of the component from the incubation medium (dopamine-β-hydroxylase [1]; human serum): 96%; Km value lower than for tyramine (fold) (dopamine-β-hydroxylase [1]; human serum): 10 times; apparent Vmax (dopamine-β-hydroxylase [1]; human serum): 56 nmol of octopamine formed per mL per min; % Control (DBH activity with the named component omitted) (dopamine-β-hydroxylase [1]): 4%; Activity (DBH enzyme activity with the named component omitted) (dopamine-β-hydroxylase [1]): 2.2 ± 0.19 nmol of octopamine formed per mL per min

Q: `[Cu]` [copper] was tested. Which “enzyme activity in ultrafiltrate” value (dopamine-β-hydroxylase [2]) did it give?
A: 51±0.56 nmol of octopamine formed per mg of protein per hour

Q: What about the “maximum decrease in enzyme activity” value (dopamine-β-hydroxylase [1]; 20 μM exogenous copper, with 15 mM NEM in the medium) of the same molecule?
A: 90%

Q: What about the “exogenous copper content above which enzyme activity decreases significantly” value (dopamine-β-hydroxylase [1]; with 15 mM NEM in the medium) of the same molecule?
A: higher than 2 μM

Q: And the “exogenous copper concentration above which enzyme activity decreases significantly” value (dopamine-β-hydroxylase [1]; without NEM in the medium)?
A: higher than 4 μM

Q: What about the “effect of exogenous copper on EDTA inhibition” value (dopamine-β-hydroxylase [3]; copper from 0 to 100 μM in the medium) of the same molecule?
A: progressively reversed

Q: For `NCCc1ccc(O)cc1` [tyramine, L-tyramine], which “saturation point (concentration saturating the enzyme activity)” value (dopamine-β-hydroxylase [1]) is on record?
A: 20 mM

Q: What about the “apparent Vmax” value (dopamine-β-hydroxylase [1]; human serum) of the same molecule?
A: 72 nmol of octopamine formed per mL per min

Q: What about the Vmax (dopamine-β-hydroxylase [3]; EDTA-treated blood, pH 5.8, Lineweaver and Burk) of the same molecule?
A: 38.5 nmol of octopamine formed per mL per min

B1: Catalase: beef liver catalase, added for peroxide degradation (protein, UniProt P00432 2-527, looked up)
Catalase: ADNRDPASDQMKHWKEQRAAQKPDVLTTGGGNPVGDKLNSLTVGPRGPLLVQDVVFTDEMAHFDRERIPERVVHAKGAGAFGYFEVTHDITRYSKAKVFEHIGKRTPIAVRFSTVAGESGSADTVRDPRGFAVKFYTEDGNWDLVGNNTPIFFIRDALLFPSFIHSQKRNPQTHLKDPDMVWDFWSLRPESLHQVSFLFSDRGIPDGHRHMNGYGSHTFKLVNANGEAVYCKFHYKTDQGIKNLSVEDAARLAHEDPDYGLRDLFNAIATGNYPSWTLYIQVMTFSEAEIFPFNPFDLTKVWPHGDYPLIPVGKLVLNRNPVNYFAEVEQLAFDPSNMPPGIEPSPDKMLQGRLFAYPDTHRHRLGPNYLQIPVNCPYRARVANYQRDGPMCMMDNQGGAPNYYPNSFSAPEHQPSALEHRTHFSGDVQRFNSANDDNVTQVRTFYLKVLNEEQRKRLCENIAGHLKDAQLFIQKKAVKNFSDVHPEYGSRIQALLDKYNEEKPKNAVHTYVQHGSHLSAREKANL
Q: Which “catalase amount up to which enzyme activity increases (then plateau till 4000 units)” value (dopamine-β-hydroxylase [1]; human serum) does the source give for B1 here?
A: 2000 units

Q: And the “% Control” value (dopamine-β-hydroxylase [1])?
A: 10%

Q: And the “Activity (DBH enzyme activity with the named component omitted)” value (dopamine-β-hydroxylase [1])?
A: 5.6 ± 0.45 nmol of octopamine formed per mL per min

B2: dopamine-β-hydroxylase (Homo sapiens) (protein)
chain: T1 sequence (P09172 40-617 limits assumed)
notes: from tissue; host or cells: human serum, unpurified (pool of 25 subjects; also individual subjects)
Q: Which Km [4] does the source give for B2 here?
A: 8 mM

Q: What about the Km [5] of the same molecule?
A: 2.4 mM
